# Test results from patent publication US8962580B2, “Chemical modifications of monomers and oligonucleotides with cycloaddition” (Alnylam Pharmaceuticals, Inc., priority 2008, dated 2015).
# Where two headings read alike, the source gives them in different places. {L125} = ligand L125 of the publication, structure not given; d = 2'-deoxy (DNA); m = 2'-O-methyl; r = 2'-OH (RNA)
# Tested on: firefly luciferase gene
# Assay: Dual-luciferase assay for RNA interfering evaluation
# Format: cell-based
# Settings: for IC50: read-out: IC 50 Values
# Procedure: 1. Dual-Luciferase Assay for RNA Interfering Evaluation
# Modified RNAs obtained by solid-phase synthesis and click reactions were evaluated in RNA interfering in dual-luciferase assays. Duplexes were prepared by heating at 95° C. for 2 min and cooling to room temperature for 2 hours in 1X Phosphate buffered saline. (Table 12-14).
# The ability of modified siRNAs to suppress gene expression was studied by a dual-luciferase assay using a pGL4 vector (Promega), which contained the Renilla and firefly luciferase genes. The siRNA sequences were designed to target the firefly luciferase gene. Stably transfected HeLa cells were then transfected with the indicated amounts of siRNAs, and the signals of firefly luciferase were normalized to those of renilla luciferase. HeLa SS6 cells were stably transfected with plasmids encoding firefly (target) and Renilla (control) luciferases.
# RNA interference methods: Hela cells were grown at 37° C., 5% CO2 in Dulbecco's modified Eagles's medium (DMEM, GIBCO) supplemented with 10% fetal bovine serum (FBS) and 1% antibiotic. The cells were maintained in the exponential growth phase. The cells were then plated in 96-well plates (0.1 mL medium per well) to reach about 90% confluence at transfection. Transfection was allowed to proceed for 24 hr at 37° C. and on day 2 the culture medium was changed to OPTIMEM 1, a reduced serum media (GIBCO). Two luciferase plasmids, Renilla luciferase (pRL-CMV) and firefly luciferase (pGL3) from Promega, were used as control and reporter, respectively. Transfection of siRNAs was carried out with Lipofectamine 2000 (Invitrogen) as described by the manufacturer for adherent cell lines. The final volume was 150 uL per well. On day 2 cells are transfected with, firefly luciferase targeting, siRNA of varying concentrations ranging from 2 pM to 8 nM mediated by Lipofectamine 2000 reagent (Invitrogen). After 24 h, cells were analyzed for both firefly and renilla luciferase expression using a plate luminometer with a delay time of 2 s and an integrate time of 10 s. (VICTOR2, PerkinElmer, Boston, Mass.) and the Dual-Glo Luciferase Assay kit (Promega), FIG. 24. Firefly/renilla luciferase expression ratios were used to determine percent gene silencing relative to untreated (no siRNA) controls. Values generated represent the mean of triplicates.
# The screening process began with a primary screen where all the compounds were screened against the parent unmodified duplex as a comparison. […] The final set of compounds was compared to one of our best modifications AD3202 and it can be seen that these compounds match up to AD 3202 in potency, however the exact mechanism by which the Uda modification contributes to improved activity is to be determined through further studies.
# Dual HeLa (HeLa cells transfected with PGL4 plasmid for luciferase expression)
# Tissue culture medium, trypsin and Lipofectamine-2000—purchased from Invitrogen (Carlsbad, Calif.).
# DMEM supplemented with 10% fetal bovine serum, 1% antibiotic solution.
# siRNA treatment was performed using Opti-MEM (Invitrogen) containing 1 mg/ml Lipofectamine2000
# DMEM without phenol red, Promega Dual Glo Luciferase Assay kit, 0.25% Trypsin (Invitrogen).
# [1] = Table 13 (Part II), stably transfected HeLa cells, Lipofectamine 2000, 24 h, firefly/renilla luciferase ratio
# [2] = Table 12 (Part I), stably transfected HeLa cells, Lipofectamine 2000, 24 h, firefly/renilla luciferase ratio
Substance,IC50 [1] [nM],IC50 [2] [nM],other results
"AD-20156: siRNA duplex: sense 33031.1 CUUACGCUGAGUACUUCGAdT(Uda2p), antisense 1001; Uda2p-3′end (sense CUUACGCUGAGUACUUCGAT; antisense UCGAAGUACUCAGCGUAAGTT; Uda2p 3' end on sense, chemistry not fully specified)",1.18,,
"AD-20158: siRNA duplex: sense 33033.1 C(Uda)UACGCUGAGUACUUCGAdT(Uda2p), antisense 1001; U2-->Uda, Uda2p-3′end (sense CUUACGCUGAGUACUUCGAT; antisense UCGAAGUACUCAGCGUAAGTT; U2 Uda, Uda2p 3' end on sense, chemistry not fully specified)",1.5,,"Fold Increase in activity as compared to parent (Table 13 (Part II), parent AD-1000): 2 fold"
"AD-20203: siRNA duplex: sense 37077 CUUACGCUGAGUACUUCGAdTdT(T31y), antisense 1001; 3′ (T31y) (sense CUUACGCUGAGUACUUCGATT; antisense UCGAAGUACUCAGCGUAAGTT; 3' (T31y) on sense, chemistry not fully specified)",,1.41,
"AD-20157: siRNA duplex: sense 33032.1 CUUACGCUGAG(Uda)ACUUCGAdT(Uda2p), antisense 1001; U12-->Uda, Uda2p-3′end (sense CUUACGCUGAGUACUUCGAT; antisense UCGAAGUACUCAGCGUAAGTT; U12 Uda, Uda2p 3' end on sense, chemistry not fully specified)",,,IC 50 Values (nM) [1]: NA—out
"AD-20201: siRNA duplex: sense 36862 CUUACGCUGAGUACUUCGAdTdTL125, antisense 1001; 3′ L125 (sense CUUACGCUGAGUACUUCGATT; antisense UCGAAGUACUCAGCGUAAGTT; 3' L125 on sense, chemistry not fully specified)",,0.922,
"AD-1000: parent unmodified siRNA duplex: sense 1000 CUUACGCUGAGUACUUCGAdTdT, antisense 1001 UCGAAGUACUCAGCGUAAGdTdT (sense CUUACGCUGAGUACUUCGATT; antisense UCGAAGUACUCAGCGUAAGTT; sugars from the 5' end r19 d2, backbone not given here) [reference compound]",0.38,,"IC50 (Table 14 (Part III), stably transfected HeLa cells, Lipofectamine 2000, 24 h, firefly/renilla luciferase ratio): 0.326 nM; IC50 (Table 15 (Part IV), selected potent duplexes, secondary screen / head to head comparison): 0.242 nM"
"AD-20321: siRNA duplex: sense 38103.1 AAcGcuGGGcGuuAAucAAdTdTL125 (2′OMe-all Py and 3′ L125), antisense 24599 UUGAUuAACGCCcAGCGUUdTsdT (sense AACGCUGGGCGUUAAUCAATT; antisense UUGAUUAACGCCCAGCGUUTT; sense: DNA at T, 2'-O-methyl at CU, RNA at AG, 3' {L125}, backbone not given here; antisense: sugars from the 5' end rrrrrmrrrrrrmrrrrrrdd, backbone not given here)",,,IC 50 Values (nM) [2]: out of range
"AD-20202: siRNA duplex: sense 37075 CUUACGCUGAGUACUUCGAdTdT(T1y), antisense 1001; 3′ (Tly) (sense CUUACGCUGAGUACUUCGATTT; antisense UCGAAGUACUCAGCGUAAGTT; 3' (Tly) on sense, chemistry not fully specified)",,1.12,
